Reference: the supplement of paper PMC4862054

How the values were obtained:
Settings in all cases: incubation time: 72 h
Hs578T [1] = experiment: normalised response (% of control), CellTiter-Glo; higher = more viable cells (100 = DMSO, 0 = benzethonium chloride kill control)
Summary of the method: (§1)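 For each plate, 0.1 % DMSO was set to 100 and a positive kill control to 0. Breast cancer cell lines (20 µl suspension) were seeded into 384-well plates already holding compound at 5 concentrations in 10-fold steps over a 10,000-fold range chosen per compound, and incubated for 72 h. CellTox Green fluorescence at 485/520 nm was read before CellTiter-Glo luminescence, which followed 10 min at room temperature. Each value is the normalised signal at one concentration.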

MDA-MB-453 [2] = experiment: as above
Summary of the method: as §1

BT-474 [3] = experiment: as above
Summary of the method: as §1

CAL-85-1 [4] = experiment: as above
Summary of the method: as §1

BT-549 [5] = experiment: as above
Summary of the method: as §1

CAL-148 [6] = experiment: as above
Summary of the method: as §1

MDA-MB-468 [7] = experiment: as above
Summary of the method: as §1

MDA-MB-436 [8] = experiment: as above
Summary of the method: as §1

HCC1599 [9] = experiment: as above
Summary of the method: as §1

CAL-120 [10] = experiment: as above
Summary of the method: as §1

CAL-51 [11] = experiment: as above
Summary of the method: as §1

MFM-223 [12] = experiment: as above
Summary of the method: as §1

MDA-MB-231 [13] = experiment: as above
Summary of the method: as §1

DU-4475 [14] = experiment: as above
Summary of the method: as §1

HDQ-P1 [15] = experiment: as above
Summary of the method: as §1

HCC1937 [16] = experiment: as above
Summary of the method: as §1

SK-BR-3 = experiment: as above
Summary of the method: as §1

MCF-10A [17] = experiment: as above
Summary of the method: as §1

HCC1143 [18] = experiment: as above
Summary of the method: as §1

Hs578T [19] = experiment: normalised response (% of control), CellTox Green; higher = less cell death (100 = DMSO, 0 = benzethonium chloride kill control)
Summary of the method: as §1

MDA-MB-453 [20] = experiment: as above
Summary of the method: as §1

BT-474 [21] = experiment: as above
Summary of the method: as §1

CAL-85-1 [22] = experiment: as above
Summary of the method: as §1

BT-549 [23] = experiment: as above
Summary of the method: as §1

CAL-148 [24] = experiment: as above
Summary of the method: as §1

MDA-MB-468 [25] = experiment: as above
Summary of the method: as §1

MDA-MB-436 [26] = experiment: as above
Summary of the method: as §1

HCC1599 [27] = experiment: as above
Summary of the method: as §1

CAL-120 [28] = experiment: as above
Summary of the method: as §1

CAL-51 [29] = experiment: as above
Summary of the method: as §1

MFM-223 [30] = experiment: as above
Summary of the method: as §1

MDA-MB-231 [31] = experiment: as above
Summary of the method: as §1

DU-4475 [32] = experiment: as above
Summary of the method: as §1

HDQ-P1 [33] = experiment: as above
Summary of the method: as §1

HCC1937 [34] = experiment: as above
Summary of the method: as §1

HCC1143 [35] = experiment: as above
Summary of the method: as §1

MCF-10A [36] = experiment: as above
Summary of the method: as §1

| SMILES | normalised response (Hs578T [1]) | normalised response (MDA-MB-453 [2]) | normalised response (BT-474 [3]) | normalised response (CAL-85-1 [4]) | normalised response (BT-549 [5]) | normalised response (CAL-148 [6]) | normalised response (MDA-MB-468 [7]) | normalised response (MDA-MB-436 [8]) | normalised response (HCC1599 [9]) | normalised response (CAL-120 [10]) | normalised response (CAL-51 [11]) | normalised response (MFM-223 [12]) | normalised response (MDA-MB-231 [13]) | normalised response (DU-4475 [14]) | normalised response (HDQ-P1 [15]) | normalised response (HCC1937 [16]) | normalised response (SK-BR-3) | normalised response (MCF-10A [17]) | normalised response (HCC1143 [18]) | normalised response (Hs578T [19]) | normalised response (MDA-MB-453 [20]) | normalised response (BT-474 [21]) | normalised response (CAL-85-1 [22]) | normalised response (BT-549 [23]) | normalised response (CAL-148 [24]) | normalised response (MDA-MB-468 [25]) | normalised response (MDA-MB-436 [26]) | normalised response (HCC1599 [27]) | normalised response (CAL-120 [28]) | normalised response (CAL-51 [29]) | normalised response (MFM-223 [30]) | normalised response (MDA-MB-231 [31]) | normalised response (DU-4475 [32]) | normalised response (HDQ-P1 [33]) | normalised response (HCC1937 [34]) | normalised response (HCC1143 [35]) | normalised response (MCF-10A [36]) |
| --- | --- | --- | --- | --- | --- | --- | --- | --- | --- | --- | --- | --- | --- | --- | --- | --- | --- | --- | --- | --- | --- | --- | --- | --- | --- | --- | --- | --- | --- | --- | --- | --- | --- | --- | --- | --- | --- |
| NC(=O)Nc1cc(-c2cccc(F)c2)sc1C(=O)N[C@H]1CCCNC1 [AZD7762] (100 nM) | 93% | 83.2% | 93.7% | 59.5% | 73.4% | 97.9% | 99.3% | 92.4% | 78.5% | 95.9% | 111% | 104% | 88.7% | 98.4% | 95.2% | 97.2% | 99.6% | 91.6% | 96.8% | 64.1% | 101% | 102% | 36.1% | 105% | 102% | 50.3% | 83.7% | 103% | 99.8% | 104% | 101% | 105% | 100% | 103% | 125% | 82.6% |  |
| N.N.[Cl][Pt][Cl] [Cisplatin] (100 nM) | 102% | 94.9% | 102% | 96.2% | 90.4% | 90.7% | 98.5% | 101% | 98.7% | 101% | 116% | 96.6% | 98.7% | 90.2% | 107% | 102% | 99.2% | 1.72% | 104% | 85.4% | 110% | 99.2% | 121% | 80.2% | 105% | 94.6% | 107% | 97.4% | 109% | 103% | 82.7% | 74% | 107% | 118% |  | 109% | -220% |
